Test [1] deals with T1, Amine oxidase [flavin-containing] B (Homo sapiens, UniProt P27338).
T1 sequence (P27338 whole entry): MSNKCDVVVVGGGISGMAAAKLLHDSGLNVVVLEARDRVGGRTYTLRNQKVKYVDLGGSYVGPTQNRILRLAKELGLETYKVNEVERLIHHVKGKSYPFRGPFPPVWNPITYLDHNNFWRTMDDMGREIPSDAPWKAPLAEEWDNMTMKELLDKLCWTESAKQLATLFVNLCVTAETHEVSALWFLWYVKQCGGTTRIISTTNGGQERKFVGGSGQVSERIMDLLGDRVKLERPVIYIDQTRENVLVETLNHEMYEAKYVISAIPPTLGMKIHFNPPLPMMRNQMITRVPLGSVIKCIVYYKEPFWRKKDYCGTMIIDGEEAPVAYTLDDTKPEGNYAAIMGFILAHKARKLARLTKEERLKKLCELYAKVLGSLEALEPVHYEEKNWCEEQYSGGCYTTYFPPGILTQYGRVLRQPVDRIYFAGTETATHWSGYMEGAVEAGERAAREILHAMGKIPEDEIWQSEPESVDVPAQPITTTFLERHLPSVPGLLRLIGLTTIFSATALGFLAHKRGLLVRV
Put plainly: Inhibition of recombinant human MAO-B using p-tyramine as substrate preincubated for 15 mins followed by substrate addition and measured after 20 mins by fluorescence assay.

In test [2] the target is Acetylcholinesterase (Homo sapiens, UniProt P22303). Put plainly: Inhibition of human AChE using acetylcholine as substrate incubated for 5 mins followed by substrate addition by Ellman's method. (DTNB colorimetry detects thiols as they appear.)
Test [3] concerns the target T1, Amine oxidase [flavin-containing] B. Put plainly: Inhibition of human MAO-B using tyramine hydrochloride as substrate preincubated for 30 mins followed by substrate addition and measured after 30 mins by fluorescence assay.
The target is the same in test [4]. Put plainly: Inhibition of recombinant human MAO-B using tyramine hydrochloride as substrate preincubated for 30 mins followed by substrate addition and measured after 30 mins by fluorescence assay.
Test [5] has the same target. Kind of test: Inhibition of human MAO-B assessed as inhibition constant using benzylamine as substrate.
Test [6] has the same target. Kind of test: Inhibition of human MAO-B using benzylamine as substrate.
Test [7] addresses T2, Amine oxidase [flavin-containing] A (Homo sapiens, UniProt P21397).
T2 sequence (P21397 whole entry): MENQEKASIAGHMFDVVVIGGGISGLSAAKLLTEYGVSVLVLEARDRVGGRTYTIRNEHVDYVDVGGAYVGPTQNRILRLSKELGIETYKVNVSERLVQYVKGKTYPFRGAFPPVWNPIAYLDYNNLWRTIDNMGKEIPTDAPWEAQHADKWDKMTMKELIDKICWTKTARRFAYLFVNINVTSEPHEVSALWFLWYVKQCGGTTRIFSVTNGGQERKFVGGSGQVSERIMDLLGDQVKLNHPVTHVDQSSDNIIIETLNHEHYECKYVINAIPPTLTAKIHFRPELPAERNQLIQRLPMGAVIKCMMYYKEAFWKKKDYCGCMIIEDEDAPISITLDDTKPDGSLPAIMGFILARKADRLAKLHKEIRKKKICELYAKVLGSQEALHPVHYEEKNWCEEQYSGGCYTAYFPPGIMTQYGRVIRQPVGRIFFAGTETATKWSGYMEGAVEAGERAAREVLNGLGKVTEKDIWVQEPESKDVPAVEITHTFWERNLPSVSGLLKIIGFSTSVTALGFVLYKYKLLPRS
Put plainly: Mixed type inhibition of human MAO-A assessed as inhibition constant by Lineweaver-Burk plot analysis.

Test [8] addresses T1, Amine oxidase [flavin-containing] B. Put plainly: Inhibition of human MAO-B.
Test [9] addresses T3, Amine oxidase [flavin-containing] B (Rattus norvegicus, UniProt P19643).
T3 sequence (P19643 whole entry): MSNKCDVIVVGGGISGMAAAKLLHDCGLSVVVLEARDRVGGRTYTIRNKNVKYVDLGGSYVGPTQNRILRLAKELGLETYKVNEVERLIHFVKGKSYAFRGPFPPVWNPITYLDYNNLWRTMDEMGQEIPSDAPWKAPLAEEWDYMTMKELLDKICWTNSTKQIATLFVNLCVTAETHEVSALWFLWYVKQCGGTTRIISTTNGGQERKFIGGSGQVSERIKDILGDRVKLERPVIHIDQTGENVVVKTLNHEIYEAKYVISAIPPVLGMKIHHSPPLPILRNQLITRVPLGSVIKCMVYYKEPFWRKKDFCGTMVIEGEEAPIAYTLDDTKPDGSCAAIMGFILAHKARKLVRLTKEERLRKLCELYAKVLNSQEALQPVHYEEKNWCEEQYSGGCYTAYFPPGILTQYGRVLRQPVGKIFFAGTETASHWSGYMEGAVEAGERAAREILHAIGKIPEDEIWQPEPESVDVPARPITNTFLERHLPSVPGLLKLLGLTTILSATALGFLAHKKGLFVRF
Put plainly: Inhibition of rat brain mitochondria MAO-B using benzylamine as substrate incubated for 30 mins by microplate reader assay.

Test [10] addresses T2, Amine oxidase [flavin-containing] A. Put plainly: Inhibition of human MAO-A assessed as inhibition constant using kynuramine as substrate.
The target of test [11] is T1, Amine oxidase [flavin-containing] B. Put plainly: Inhibition of MAO-B (unknown origin) using kynuramine as substrate preincubated for 10 mins followed by substrate addition and measured after 20 mins by fluorescence microplate reader assay.
Test [12] addresses T2, Amine oxidase [flavin-containing] A. Kind of test: Inhibition of MAO-A (unknown origin) using kynuramine as substrate preincubated for 10 mins followed by substrate addition and measured after 20 mins by fluorescence microplate reader assay.
Test [13] deals with Acetylcholinesterase (Electrophorus electricus, UniProt O42275). Put plainly: Inhibition of electric eel AChE using acetylthiocholine iodide as substrate incubated for 15 mins by Ellman's method.

Among the data in ChEMBL document CHEMBL5230123, “A comprehensive review of monoamine oxidase inhibitors as Anti-Alzheimer's disease agents: A review” (Eur J Med Chem, 2020) are IC50 and Ki values, retold here.

Broadly, the IC50 is the midpoint of a concentration-inhibition curve. What is called Ki is the equilibrium dissociation constant of an inhibitor or competing ligand from its target.

Some results are limits rather than exact numbers.

Acetylcholinesterase (Electrophorus electricus, UniProt O42275), sequence (O42275 whole entry): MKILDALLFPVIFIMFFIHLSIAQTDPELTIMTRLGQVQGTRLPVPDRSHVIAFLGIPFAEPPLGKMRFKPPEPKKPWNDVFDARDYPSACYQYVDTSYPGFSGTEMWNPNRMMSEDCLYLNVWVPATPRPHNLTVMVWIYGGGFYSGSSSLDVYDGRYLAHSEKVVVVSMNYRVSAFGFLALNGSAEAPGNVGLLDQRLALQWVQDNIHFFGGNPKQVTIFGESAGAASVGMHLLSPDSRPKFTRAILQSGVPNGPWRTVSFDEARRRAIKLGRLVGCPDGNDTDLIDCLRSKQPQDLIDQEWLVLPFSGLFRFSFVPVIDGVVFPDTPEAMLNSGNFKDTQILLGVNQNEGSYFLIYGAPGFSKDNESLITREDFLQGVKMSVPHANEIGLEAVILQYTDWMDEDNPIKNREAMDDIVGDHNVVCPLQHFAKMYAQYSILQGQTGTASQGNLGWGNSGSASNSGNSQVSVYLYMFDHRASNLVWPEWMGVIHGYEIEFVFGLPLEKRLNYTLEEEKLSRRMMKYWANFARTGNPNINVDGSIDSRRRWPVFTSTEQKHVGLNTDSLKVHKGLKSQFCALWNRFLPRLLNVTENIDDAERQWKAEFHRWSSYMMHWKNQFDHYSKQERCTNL
Acetylcholinesterase (Homo sapiens, UniProt P22303), sequence (P22303 whole entry): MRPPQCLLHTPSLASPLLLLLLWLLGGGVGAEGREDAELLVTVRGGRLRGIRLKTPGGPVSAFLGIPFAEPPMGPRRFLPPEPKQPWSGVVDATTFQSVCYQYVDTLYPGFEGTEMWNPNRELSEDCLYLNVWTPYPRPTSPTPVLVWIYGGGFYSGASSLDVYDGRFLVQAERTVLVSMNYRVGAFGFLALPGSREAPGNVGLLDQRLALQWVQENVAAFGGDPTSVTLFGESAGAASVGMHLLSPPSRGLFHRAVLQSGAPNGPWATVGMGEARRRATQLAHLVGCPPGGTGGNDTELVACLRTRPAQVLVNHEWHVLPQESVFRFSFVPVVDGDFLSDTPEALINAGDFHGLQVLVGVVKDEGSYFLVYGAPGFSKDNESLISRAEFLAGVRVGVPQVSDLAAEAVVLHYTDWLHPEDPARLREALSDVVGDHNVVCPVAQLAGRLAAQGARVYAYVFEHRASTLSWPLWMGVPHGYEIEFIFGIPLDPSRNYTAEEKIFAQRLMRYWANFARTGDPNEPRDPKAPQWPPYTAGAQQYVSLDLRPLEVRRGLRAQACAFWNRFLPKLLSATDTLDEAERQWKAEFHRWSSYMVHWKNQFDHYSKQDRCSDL

Turning to `Cc1c(C)c2c(c(C)c1O)CCC(C)(C(=O)NCCC1CCN(Cc3ccccc3F)CC1)O2` (centres undefined), the IC50 in [1] stood at 4300 nM; in test [2], 540 nM.

With `O=C(CSC(=S)N1CCN(c2ccc([N+](=O)[O-])cc2)CC1)N(Cc1ccc([N+](=O)[O-])cc1)c1ccc(F)cc1`, inhibition in test [3] was half-maximal at 97 nM (IC50).

Consider `CC1CCCCN1c1ccc(/C=N/Nc2ccccc2)cc1` (centres undefined), for which the IC50 in test [4] came out at 342 nM.

In the case of `O=C(/C=C/c1ccc(O)cc1)CC(=O)/C=C/c1ccc(O)cc1` [BISDEMETHOXYCURCUMIN], in [5], the Ki amounted to 800 nM. Moreover, the midpoint of inhibition in test [6], the IC50, lay at 2590 nM.

As to `COc1cc(O)c2c(=O)oc3cc(O)cc(C)c3c2c1`, the Ki in test [7] is 340 nM. Moreover, in test [8], the IC50 is over 80000 nM.

The compound `O=C1Nc2ccc(Cl)cc2/C1=N\NC(=O)c1ccc2c(c1)OCO2` came in with an IC50 in test [9] of 34 nM.

Turning to `COc1cc(/C=C/C(=O)CC(=O)/C=C/c2ccc(O)cc2)ccc1O`, in test [6], the midpoint of inhibition, the IC50, lay at 2450 nM. In addition, in test [10], the Ki is 910 nM.

`CCOc1ccc([N+](=O)[O-])c(N/N=C/c2ccc(O)cc2)n1`: the results for the IC50 in [11] and in [12] were 9300 nM and 6250 nM, respectively.

Turning to `C#CCN1C(=O)/C(=N/NC(=O)c2ccc3c(c2)OCO3)c2ccccc21`, the IC50 in test [13] is 52 nM.
